Results as given in PMC4941764, “Identification of 4-aminoquinoline core for the design of new cholinesterase inhibitors” (PeerJ, 2016).

Target: T1, acetylcholinesterase (eeAChE) (Electrophorus electricus, UniProt O42275)
T1 construct: gene ache
Assay: Ellman assay, single concentration ([…])
Format: biochemical

T1 sequence (O42275 24-633): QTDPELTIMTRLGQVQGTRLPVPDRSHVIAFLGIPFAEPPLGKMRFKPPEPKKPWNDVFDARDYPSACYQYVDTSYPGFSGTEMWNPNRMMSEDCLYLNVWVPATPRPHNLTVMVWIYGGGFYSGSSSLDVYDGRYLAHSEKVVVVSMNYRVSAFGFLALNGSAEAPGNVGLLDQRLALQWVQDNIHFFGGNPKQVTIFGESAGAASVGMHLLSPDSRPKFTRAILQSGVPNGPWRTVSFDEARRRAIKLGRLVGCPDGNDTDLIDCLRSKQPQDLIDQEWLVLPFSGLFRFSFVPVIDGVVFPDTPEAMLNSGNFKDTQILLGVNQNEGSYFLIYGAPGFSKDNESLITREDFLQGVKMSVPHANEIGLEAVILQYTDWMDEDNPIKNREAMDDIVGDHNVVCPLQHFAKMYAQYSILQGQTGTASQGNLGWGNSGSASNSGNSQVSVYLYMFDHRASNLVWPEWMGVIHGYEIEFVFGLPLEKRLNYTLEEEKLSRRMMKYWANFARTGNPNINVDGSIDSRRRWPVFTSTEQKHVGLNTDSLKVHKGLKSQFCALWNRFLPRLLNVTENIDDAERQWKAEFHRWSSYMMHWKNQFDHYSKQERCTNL

Nc1ccnc2ccccc12 [compound 03, 4-aminoquinoline]
inhibition at 10 µM: 68.3 ± 1.83%
